Test results reported in patent publication US10100052B2, “Compounds for the treatment of hepatitis B virus infection” (Gilead Sciences, Inc., priority 2016, dated 2018).

Tests used:
[1] = Pharmacokinetic analysis following intravenous administration to rats; type: in vivo; conditions: male, Sprague-Dawley, rat, intravenous infusion over 30 min, 1 mg/kg; for clearance / Vd: plasma; for Vd: read-out: Vss; for half-life: terminal plasma half-life
Procedure: (§1) Pharmacokinetic analysis was performed on various test compounds following intravenous or oral administration to male Sprague-Dawley rats.
(§2) For pharmacokinetic analysis of intravenously administered compounds, the test compounds were formulated in 5% NMP, 30% PG, 45% PEG 300 and 20% water at 0.5 mg/mL for IV infusion. For pharmacokinetic analysis following oral administration, compounds were formulated in the same vehicle and concentration.
(§3) Each dosing group consisted of 3 male, naïve Sprague-Dawley rats. At dosing, animals weighed approximately 0.28 kg. The animals were fasted overnight prior to dose administration and up to 4 hr after dosing. For studies of intravenous administration, the test article was administered to the animals by intravenous infusion over 30 min. The rate of infusion was adjusted according to the body weight of each animal to deliver a dose of 1 mg/kg. For studies of oral administration, the test article was administered according to the body weight of each animal to deliver a dose of 5 mg/kg.
For pharmacokinetic analysis of intravenously administered compounds, serial venous blood samples (approximately 0.3 mL each) were taken from each animal at 0, 0.250, 0.483, 0.583, 0.750, 1.50, 3.00, 6.00, 8.00, 12.0, and 24.0 hours after dosing. The blood samples were collected into Vacutainer™ tubes containing EDTA-K2 as the anti-coagulant and were immediately placed on wet ice pending centrifugation for plasma. An LC/MS/MS method was used to measure the concentration of the test compound in plasma. An aliquot of 100 μL of each plasma sample was added to a clean 96 well plate, and 400 μL of cold acetonitrile/internal standard solution (ACN)/(ISTD) was added. After protein precipitation, an aliquot of 100 μL of the supernatant was transferred to a clean 96-well plate and diluted with 175 μL of water. An aliquot of 10 μL of the above solution was injected into an ABSciex API-4000 LC/MS/MS system utilizing a HyPurity C18 HPLC column (30×2.1 mm, 3 m; Thermo-Hypersil Part #22103-032130). An Agilent 1200 series binary pump (P/N G1312A Bin Pump) was used for elution and separation, and an HTS Pal autosampler (LEAP Technologies, Carrboro, N.C.) was used for sample injection. A TSQ Quantum Ultra triple quadrupole mass spectrometer was utilized in selective reaction monitoring mode (Applied Biosystems, Foster City, Calif.). Liquid chromatography was performed using two mobile phases: mobile phase A contained 0.1% formic acid and 1% isopropanol in water; and mobile phase B contained 0.1% formic acid and 1% isopropanol in acetonitrile. Non-compartmental pharmacokinetic analysis was performed on the plasma concentration-time data.
The resulting data are shown in the first three columns of Table 4. In Table 4, CL refers to clearance, which characterizes the rate at which drug is removed from plasma. The lower the clearance of a drug is, the longer the elimination half-life is in the body. Vss refers to the steady state volume of distribution and indicates how well a drug is distributed into the tissues. The larger the Vss is, the longer the elimination half-life is in the body. T1/2 refers to the terminal plasma half-life of the compound.

[2] = Pharmacokinetic analysis following oral administration to rats; type: in vivo, male Sprague-Dawley rats; conditions: rat, 5 mg/kg; for Cmax / AUC(0-t): male, Sprague-Dawley, plasma; for AUC(0-t): 0 to 24 hr, read-out: AUC0-24; for F: oral bioavailability
Procedure: as §1, §2, §3
For pharmacokinetic analysis of orally administered compounds, serial venous blood samples (approximately 0.3 mL each) were taken from each animal at time points of 0, 0.25, 0.50, 1.0, 2.0, 4.0, 6.0, 8.0, 12.0 and 24.0 hours after dosing. Blood samples were collected, prepared and analyzed in a similar way to the intravenous studies described above. Non-compartmental pharmacokinetic analysis was performed on the plasma concentration-time data. The resulting data are shown in the last three columns of Table 4. In Table 4, F (%) refers to oral bioavailability. Cmax refers to the peak plasma concentration of the compound after administration. AUC0-24 refers to area under the curve for the 0 to 24 hr plasma collection interval and is a measure of total plasma exposure of the indicated compound.

[3] = In vitro metabolic stability, hepatocytes (rat); type: in vitro ADME; conditions: rat hepatocytes 1×10^6 cells/mL, 2 μM compound; read-out: Hepatocyte Stability T1/2 Rat (converted)
Procedure: (§4) For hepatocyte stability incubations, cells were obtained from BioreclamationIVT (Baltimore, Md.), thawed according to the manufacturer's directions, and resuspended to a final concentration of 1×10^6 cells/mL in Krebs-Henseleit buffer prewarmed to 37° C. The total cell count and the proportion of viable cells were determined by Trypan Blue dye exclusion using a hemocytometer. The final concentration of test compounds and positive controls was 2 μM. Incubations were carried out in duplicate wells of a 24-well plate out with gentle shaking at 37° C. under a humid atmosphere of 95% air/5% CO2 (v/v). Aliquots (50 μL) were removed after 0, 1, 3, and 6 hours and added to 100 μL quenching solution. Samples were then processed and analyzed in a manner similar to the microsomal stability samples.
(§5) Quantification of test compounds and positive controls were performed using analyte/internal standard peak area ratios (PAR) measured on a Q-Exactive mass spectrometer (Thermo Scientific, San Jose, Calif.) coupled to an Aria Transcend LX-4 multiplex UHPLC system (Thermo Scientific, San Jose, Calif.). […] Half-lives of compounds in the incubations were calculated from extracted data using GMSU/QuickCalc (Gubbs, Inc.) and data are summarized in the following Table 3.

[4] = In vitro metabolic stability, hepatocytes (human); type: in vitro ADME; conditions: human hepatocytes 1×10^6 cells/mL, 2 μM compound; read-out: Hepatocyte Stability T1/2 Human (converted)
Procedure: as §4, §5

Molecule `COCCCOc1cc2c(cc1Cl)-c1cc(=O)c(C(=O)O)cn1[C@H](C(C)(C)C)C2` [Comparative Example 2] has a clearance [1] of 5.05 mL/min/kg, a Vd [1] of 0.661 L/kg and a half-life [1] of 1.99 h. For the same molecule, the Cmax [2] was 2.43 µM, the AUC(0-t) [2] was 15.2 µM·h and the F [2] was 40.5%.

For `COCCCOc1cc2c(cc1Cl)-c1cc(=O)c(C(=O)O)cn1[C@H](C1(C)CC1)C2` [Comparative Example 1], the half-life at 2 μM [3] was 7 h, the half-life at 2 μM [4] was 8.9 h and the clearance [1] was 5.67 mL/min/kg. For the same molecule, the Vd [1] was 0.57 L/kg, the half-life [1] was 1.62 h and the Cmax [2] was 4.03 µM. It also gave an AUC(0-t) [2] of 22.1 µM·h and an F [2] of 53.8%.

For `COCCCOc1cc2c(cc1Cl)-c1cc(=O)c(C(=O)O)cn1N(C(C)(C)C)C2` [Example 2, 6-(tert-Butyl)-10-chloro-9-(3-methoxypropoxy)-2-oxo-6,7-dihydro-2H-pyrido[2,1-a]-phthalazine-3-carboxylic acid], the half-life at 2 μM [3] was over 39.5 h, the half-life at 2 μM [4] was 26.6 h and the clearance [1] was 2.97 mL/min/kg. For the same molecule, the Vd [1] was 0.623 L/kg, the half-life [1] was 3.34 h and the Cmax [2] was 6.76 µM. The AUC(0-t) [2] was 68.6 µM·h and the F [2] was 109%.
